Assays:
[1] = Inhibition of chymotrypsin like activity of yeast 20S proteasome beta 5 subunit after 30 mins by fluorescence assay; parameters: species or system Saccharomyces cerevisiae
HCT-116 = assay: Cytotoxicity against human HCT116 cells after 72 hrs by MTS/PMS assay; assay type: functional, cell-based; conditions: HCT-116, 72 h

SMILES	IC50 [1] [nM]	IC50 (HCT-116) [nM]
CCC[C@H](O)[C@@]12NC(=O)[C@H](CCCl)[C@]1(C)OC2=O [SALINOSPORAMIDE X5]	245	1090
CC(C)[C@H](O)[C@@]12NC(=O)[C@H](CCCl)[C@]1(C)OC2=O [ANTIPROTEALIDE]	101	777
C[C@@]12OC(=O)[C@]1([C@@H](O)C1CCCC1)NC(=O)[C@@H]2CCCl	9.3	54
C[C@@]12OC(=O)[C@]1([C@@H](O)C1CCCCC1)NC(=O)[C@@H]2CCCl	27.5	176
C[C@@]12OC(=O)[C@]1([C@@H](O)[C@@H]1C=CCC1)NC(=O)[C@@H]2CCCl [SALINOSPORAMIDE X7]	2.2	5.9
CCCC[C@H](O)[C@@]12NC(=O)[C@H](CCCl)[C@]1(C)OC2=O [SALINOSPORAMIDE X6]	132	1110
C[C@@]12OC(=O)[C@]1([C@@H](O)[C@@H]1C=CCCC1)NC(=O)[C@@H]2CCCl [MARIZOMIB]	1.9	16
C[C@@]12OC(=O)[C@]1([C@@H](O)c1ccccc1)NC(=O)[C@@H]2CCCl [SALINOSPORAMIDE X4]	1030	6880
C[C@@]12OC(=O)[C@]1([C@@H](O)C1CCC1)NC(=O)[C@@H]2CCCl [SALINOSPORAMIDE X3]	93.4	188
